Experimental data published in patent publication US7033583B2, “Polymeric thiol-linked prodrugs” (Enzon Pharmaceuticals, Inc., priority 2001, dated 2006).

Legend:
[1] = test system: Lung M109 Syngeneic Solid Tumors; test: In vivo efficacy against M109 solid tumors; set-up: species or system Balb/C mice; settings: i.v. day 1 & 4; for T/C (%) at Day 25: control median tumor ~2000 mm^3
Protocol: M109 cells (NCI), derived from donor mice, were grown and expanded in tissue culture for in vivo implantation. Cells were grown in EMEM with 10% FBS and 1% streptomycin/penicillin media, kept in an incubator at 37° C. with 5% CO2 and split twice a week. Cells were trypsinized, harvested, washed, counted and prepared in PBS for transport to the vivarium. Cells were kept on ice until implantation was conducted with minimum lag time. A cell suspension of approximately 5×10^6 cells/mL was used. Balb/C mice were implanted subcutaneous with 100 μL of the above cell suspension (Day 0). Treatments were administered intravenously on Day 1 and Day 4. Compound doses were based on the content of 6-MP. Body weight and tumor volume were then measured twice weekly until the group's median tumor volume exceeded 2000 mm^3. The tumor volume for each mouse was determined by measuring two dimensions with calipers and calculated using the formula: tumor volume=(length×width^2)/2. Drug effects were determined by comparing tumor growth in treated versus control (no vehicle) mice. Three types of endpoints were used as the basis for comparison: (a) the percent difference in tumor volume (% T/C), measured when the control group's median tumor volume reached approximately 800–1100 mm^3 (exponential growth phase), (b) again when the control group's median tumor volume was approximately 2000 mm^3 and (c) the number of tumor regression (smaller tumor volume on Day 25 compared to Day 1) per group.

P388/0 cell lines = test: Cytotoxicity assay (Alamar Blue) in P388/0 cells; assay type: cell-based; settings: Mus musculus, 72 h, 3 days
Protocol: Cell Lines and Cytotoxicity Assays. Studies using P388/0 cell lines for IC50 (drug concentration inhibiting growth of cells by 50%) were maintained and conducted as previously reported. Briefly, for IC50 determination, cells were seeded into the microwell plates at a density of 2×10^3 cells per 50 μL per well. Plates were incubated at 37° C. in a humidified incubator with 5% CO2 for 3 days. Cell growth was measured by the addition of 10 μL/well of Alamar Blue (Alamar Biosciences, Inc., Sacramento, Calif.) and the plates were incubated a further 4 h at 37° C. The IC50 values for each compound were determined from absorbance versus dilution factor plots. All cell cultures for animal implantation were maintained at 37° C. in a humidified atmosphere of 5% CO2/95% O2 and subcultured once a week. All cell lines were periodically tested for Mycoplasma and were Mycoplasma free.

Sc1ncnc2nc[nH]c12 [Compound 1, 6-mercaptopurine, reference compound]
inhibiting the growth of M109 solid tumors ([1]; Balb/C mice): ineffective
T/C (%) at Day 18 ([1]; total dose 60 mg/kg (6-MP content), control median tumor ~1000 mm^3): 127.1%
T/C (%) at Day 25 ([1]; total dose 60 mg/kg (6-MP content)): 122.0%
T/C (%) at Day 25 ([1]; total dose 200 mg/kg): 183.8%
IC50 (P388/0 cell lines): 2670 nM
